Format in all cases: physicochemical
The nature of series [1]: Dynamic Mechanical Analysis (DMA) of printed specimens. Conditions: increasing the percentage of reactive diluent from 10 to 30% in X-851-1066. How it is done:
For the (thermo)mechanical tests and water uptake tests, Example 1 or Reference 2 were mixed with two commercially available oligomers, namely Ebecryl 8811 (Allnex) a difunctional aliphatic urethane acrylate and BR-952 (Bomar) a difunctional aliphatic urethane methacrylate in different ratios.
For the sample preparation a speedmixer (DAC 150.1 FVZ-K, Hauschild) was used. 70 g of the total formulation was mixed at 3000 rpm for 10 minutes. After that the resin composition was degassed until no air bubbles were released.
Test specimens were printed on a Cubicure Caligma 200 DLP 405 nm. Light Pulse Duration was set to 6000, corresponding to 1.5 s total exposure time, and print speed to 20 mm/s. Processing temperature was 35°C, due to the high volatility of Reference 2.
Dynamic Mechanical Analysis (DMA) of the printed specimens measuring 50x5x1 mm^3 was performed using a DMA8000 Dynamic Mechanical Analyzer from PerkinElmer. The measurements were performed using the tension mode, from 30-160 °C with a heating rate of 2°C min^-1 and frequency of 1 Hz. In these experiments the evolution of the storage modulus G' with increasing temperature was observed and the Tg was determined (maximum value for tan δ).

Series [2] is described as follows: Volatility: weight loss after 24 hours in oven. Conditions: for weight loss relative to example 1: ratio to weight loss of example 1. As for the experimental part: Volatility can be assessed from the weight lost after 24 hours, and is preferably below 10%, more preferably below 5% and even more preferable below 1% at the process temperature (between 30 and 150°C). For the determination of the volatility of the compounds 25 mL flasks (Ø 30 mm) with approximately 2 grams of the test compound were placed in a Memmert oven at 50 °C and 80°C for 24 hours and the volatility was determined as the weight loss in percent (w/w).

A short description of series [3]: Viscosity by rheology (temperature ramp, cone-plate rheometer). The settings on record: shear rate 60 s^-1. How it is done: Viscosity is another crucial parameter on the development of a reactive diluent. To obtain an effective reactive diluent, monomers providing a low viscosity need to be obtained. The referred viscosity is preferably between 5 and 100 mPa.s, more preferably between 5 and 50 mPa.s, and even more preferably 5 and 20 mPa.s. The presented viscosities refer to the process temperature which can be between 30-150°C. The viscosity was determined via rheology. Rheology measurements were performed using an Anton Paar MCR 102 rheometer, equipped with a P-PTD 200/GL Peltier glass plate and an H-PTD200 heating hood. For measuring the rheological properties, a temperature ramp experiment was performed from 25-100°C with a heating rate of 0.5°C min^-1, using a CP25 measurement system (cone plate with a 2° angle and 25 mm diameter) at a gap distance of 0.1 mm and with a shear rate of 60 s^-1.

A short description of series [4]: Photo-DSC photo-reactivity study. The settings on record: 50°C, 365 nm, 1% w/w TPO-L; for t95%: time when 95% of the total heat of polymerization has evolved; for tmax: time when maximum heat evolution was reached. As for the experimental part: Photo-DSC (differential scanning calorimetry) studies were performed using a Netzsch DSC 204 F1 containing an autosampler and coupled to an intracooler IC85 cooling device. The system was connected to an Omnicure LX500 controller with a 365 nm LED and the power intensity was set on the sample at 17 mW cm^-2 (measured using a Thorlabs SMC100 powermeter and the corresponding S310C thermal power head). The test samples were mixed in a vortex mixer for 3 minutes with 1% w/w of TPO-L (a commercially available photoinitiator) and then […] were transferred to an aluminum crucible without lid. All experiments were conducted under Nitrogen atmosphere (flow = 20 mL/min) at 50°C and the samples were irradiated for 5 minutes. Triplicate DSC measurements were performed for each example. The measured heat of polymerization (ΔH) was calculated by integrating the area under the curve from 0 to 200 s.
Here, tmax is the time when maximum heat evolution was reached and t95% corresponds to the point when 95% of the total heat of polymerization has evolved (0 s corresponds to the moment when light is triggered). The double bound conversion (DBC) was calculated from the experimentally obtained heat of polymerization and the theoretical polymerization enthalpy indicated in the literature (56 kJ mol^-1 for methacrylates).

The text below walks through data of patent EP4549150A1, “RESIN COMPOSITION FOR THREE-DIMENSIONAL PRINTING” (Cubicure GmbH, priority 2023, dated 2025).

Marks after values point to notes of the source that are not given here.

Turning to `C=C(C)C(=O)OC1CCCCC1O` (stereo not drawn) [Ex1, 2-hydroxycyclohexyl methacrylate], in series [1], the “decrease of Tg of the photopolymer” value turned out to be 4%. For the same compound, the “Volatility [weight loss %]” value in series [2] (50°C) is listed as 5%; in series [2] (80°C) it was 20%. For the same compound, the Viscosity in series [3] (25°C (room temperature)) was 53 mPa.s; in series [3] (40°C), 26 mPa.s; in series [3] (50°C) it was 16 mPa.s; in series [3] (70°C), 7 mPa.s; in series [3] (90°C), 4 mPa.s; in series [3] (100°C) it was 3 mPa.s. The t95% in series [4] stood at 43 s. Besides, the tmax in series [4] is 14 s.

Regarding `C=C(C)C(=O)OC1CCCCC1OC(=O)C1CCCCC1` (stereo not drawn) [Ex2, 2-(cyclohexylcarbonyloxy)cyclohexyl methacrylate], the “Volatility [weight loss %]” value worked out at 1% in series [2] (50°C) and 14% in series [2] (80°C). For the same compound, the Viscosity in series [3] (25°C (room temperature)) worked out at 27 mPa.s; in series [3] (40°C), 17 mPa.s; in series [3] (50°C) it was 12 mPa.s; in series [3] (70°C) it was 7 mPa.s; in series [3] (90°C), 4 mPa.s; in series [3] (100°C), 4 mPa.s. In series [4], the t95% stood at 66 s. For the same compound, in series [4], the tmax came to 17 s.

Consider `C=C(C)C(=O)OC1CCCCC1OC(=O)C(C)(C)C` (stereo not drawn) [Ex3, 2-(isopropenylcarbonyloxy)cyclohexyl 2,2-dimethylpropionate], for which the “Volatility [weight loss %]” value in series [2] (50°C) is given as 2.7%; in series [2] (80°C) it was 21%. Also, the Viscosity is reported as 13 mPa.s in series [3] (25°C (room temperature)); 9 mPa.s in series [3] (40°C); 6 mPa.s in series [3] (50°C); 4 mPa.s in series [3] (70°C); 2 mPa.s in series [3] (90°C); 2 mPa.s in series [3] (100°C). The compound further had a t95% in series [4] of 87 s. The compound further showed a tmax in series [4] of 51 s.

Consider `C=C(C)C(=O)OC1CCCCC1OC(=O)Cc1ccccc1` (stereo not drawn) [Ex4, 2-(benzylcarbonyloxy)cyclohexyl methacrylate], for which the “Volatility [weight loss %]” value in series [2] (50°C) was determined as 0.09%; in series [2] (80°C) it was 17%. Further, the Viscosity in series [3] (25°C (room temperature)) is 110 mPa.s; in series [3] (25°C (room temperature), listed as Example 4), 174 mPa.s; in series [3] (40°C), 53 mPa.s; in series [3] (50°C) it was 31 mPa.s; in series [3] (70°C), 13 mPa.s; in series [3] (90°C), 8 mPa.s. Also, the Viscosity in series [3] (100°C) was determined as 7 mPa.s. In series [4], this compound returned a t95% of 174 s. In series [4], this compound gave a tmax of 26 s.

Consider `C=C(C)C(=O)OC1CCCCC1OC(=O)C(CC)CCCC` (stereo not drawn) [Ex5, 2-(isopropenylcarbonyloxy)cyclohexyl 2-ethylhexanoate], for which the “Volatility [weight loss %]” value in series [2] (50°C) is reported as 0.6%; in series [2] (80°C), 1.9** %. In addition, the Viscosity in series [3] (25°C (room temperature)) is recorded as 174 mPa.s; in series [3] (25°C (room temperature), listed as Example 5) it was 110 mPa.s; in series [3] (40°C), 101 mPa.s; in series [3] (40°C, listed as example 5), 53 mPa.s; in series [3] (50°C), 65 mPa.s; in series [3] (70°C) it was 34 mPa.s. Also, the Viscosity in series [3] (90°C) is on record as 20 mPa.s; in series [3] (100°C), 19 mPa.s.

Take `C=C(C)C(=O)OCCO` [Ref2, 2-hydroxyethylmethacrylate, reference compound]: in series [1], the “decrease of Tg of the photopolymer” value is reported as 13%. The entries for the “Volatility [weight loss %]” value in series [2] (50°C) and in series [2] (80°C) were 34% and 89%, respectively. Also, the “weight loss relative to example 1” value in series [2] (80°C) is on record as “more than 4 times”. Moreover, the Viscosity in series [3] (25°C (room temperature)) is reported as 6 mPa.s; in series [3] (40°C) it was 4 mPa.s; in series [3] (50°C) it was 3 mPa.s; in series [3] (70°C) it was 2 mPa.s; in series [3] (90°C), 1 mPa.s; in series [3] (100°C), 1 mPa.s. The t95% in series [4] stood at 65 s. The tmax in series [4] is recorded as 43 s.

As to “Isobornyl methacrylate [Ref1, reference compound]”, the “Volatility [weight loss %]” value in series [2] (50°C) was 12%; in series [2] (80°C), 65%. In addition, the “weight loss relative to example 1” value in series [2] (80°C) is on record as 3 times. Besides, the Viscosity was 8 mPa.s in series [3] (25°C (room temperature)); 6 mPa.s in series [3] (40°C); 4 mPa.s in series [3] (50°C); 3 mPa.s in series [3] (70°C); 2 mPa.s in series [3] (90°C); 2 mPa.s in series [3] (100°C). Moreover, the t95% in series [4] was found to be 67 s. Also, in series [4], the tmax is reported as 36 s.
